Assay results as given in PMC4773911 (Journal of the American Chemical Society, 2015).
“Also recorded” adds a separate entry of the source.

What was measured:
[1] = target: T1, DAGL-α (Homo sapiens, UniProt Q9Y4D2); type: biochemical; details: pre-incubated at IC80 concentration; MB064 labeling; n=3
T1 sequence (Q9Y4D2 1-1042): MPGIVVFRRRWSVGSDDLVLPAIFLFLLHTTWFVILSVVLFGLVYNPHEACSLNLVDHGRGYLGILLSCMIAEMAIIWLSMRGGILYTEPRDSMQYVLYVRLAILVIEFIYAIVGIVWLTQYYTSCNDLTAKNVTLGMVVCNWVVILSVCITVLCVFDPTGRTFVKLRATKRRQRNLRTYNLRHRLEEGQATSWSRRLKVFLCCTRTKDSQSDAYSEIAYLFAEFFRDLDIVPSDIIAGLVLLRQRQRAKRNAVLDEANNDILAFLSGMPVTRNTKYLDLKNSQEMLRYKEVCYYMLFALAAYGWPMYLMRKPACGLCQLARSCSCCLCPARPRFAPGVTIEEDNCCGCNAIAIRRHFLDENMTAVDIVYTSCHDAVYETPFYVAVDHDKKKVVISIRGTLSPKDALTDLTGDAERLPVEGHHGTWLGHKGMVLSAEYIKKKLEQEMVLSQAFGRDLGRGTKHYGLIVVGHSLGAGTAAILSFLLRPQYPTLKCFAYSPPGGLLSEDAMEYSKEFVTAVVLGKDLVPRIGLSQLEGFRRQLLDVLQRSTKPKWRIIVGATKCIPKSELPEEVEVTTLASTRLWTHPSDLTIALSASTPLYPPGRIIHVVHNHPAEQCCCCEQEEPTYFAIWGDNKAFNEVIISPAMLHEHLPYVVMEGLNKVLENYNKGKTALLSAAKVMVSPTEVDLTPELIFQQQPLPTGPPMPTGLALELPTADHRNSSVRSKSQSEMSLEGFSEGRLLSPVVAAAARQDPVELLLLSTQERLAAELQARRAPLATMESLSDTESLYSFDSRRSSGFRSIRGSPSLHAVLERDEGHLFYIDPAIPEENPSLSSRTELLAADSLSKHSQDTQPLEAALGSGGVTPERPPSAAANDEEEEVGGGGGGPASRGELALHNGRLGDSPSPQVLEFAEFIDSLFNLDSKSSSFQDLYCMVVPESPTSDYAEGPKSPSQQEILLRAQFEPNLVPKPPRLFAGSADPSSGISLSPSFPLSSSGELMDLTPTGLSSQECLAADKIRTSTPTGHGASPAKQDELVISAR

[2] = test system: mouse liver; details: cited from earlier work
[3] = target: T1, DAGL-α; assay: real-time, fluorescence-based
[4] = target: T2, FAAH (Mus musculus, UniProt O08914); assay: competitive ABPP with TAMRA-FP in mouse brain membrane proteome, FAAH labeling; type: binding
T2 sequence (O08914 1-579): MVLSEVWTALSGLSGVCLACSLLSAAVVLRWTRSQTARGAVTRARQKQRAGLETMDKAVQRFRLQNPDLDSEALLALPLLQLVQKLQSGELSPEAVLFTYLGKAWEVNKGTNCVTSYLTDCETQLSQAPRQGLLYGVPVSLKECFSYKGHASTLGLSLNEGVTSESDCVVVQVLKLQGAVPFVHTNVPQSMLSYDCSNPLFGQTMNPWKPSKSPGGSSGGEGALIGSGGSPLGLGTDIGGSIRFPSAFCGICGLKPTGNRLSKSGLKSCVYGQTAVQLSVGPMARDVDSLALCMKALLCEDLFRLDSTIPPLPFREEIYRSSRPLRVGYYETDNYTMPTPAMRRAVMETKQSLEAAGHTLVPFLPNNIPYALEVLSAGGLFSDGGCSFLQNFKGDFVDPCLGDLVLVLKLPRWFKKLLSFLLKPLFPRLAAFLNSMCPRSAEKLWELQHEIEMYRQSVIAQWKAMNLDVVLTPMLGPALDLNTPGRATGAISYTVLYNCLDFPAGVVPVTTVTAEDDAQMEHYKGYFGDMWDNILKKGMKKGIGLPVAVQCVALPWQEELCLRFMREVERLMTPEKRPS

[5] = target: T3, recombinant human MAGL (Homo sapiens, UniProt Q99685); assay: biochemical assay using recombinant human MAGL
T3 sequence (Q99685 1-303): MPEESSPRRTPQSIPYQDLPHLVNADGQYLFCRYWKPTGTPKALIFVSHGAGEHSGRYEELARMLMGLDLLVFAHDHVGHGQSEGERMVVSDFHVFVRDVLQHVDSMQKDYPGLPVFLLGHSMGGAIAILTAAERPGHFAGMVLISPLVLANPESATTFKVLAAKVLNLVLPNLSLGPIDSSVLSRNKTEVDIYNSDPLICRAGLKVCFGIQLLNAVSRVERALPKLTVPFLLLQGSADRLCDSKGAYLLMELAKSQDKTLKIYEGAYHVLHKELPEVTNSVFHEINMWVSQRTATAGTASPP

[6] = test system: DAGL-α; type: binding, mouse; details: 10 μM
[7] = test system: human PC3 cells; assay: lipid levels in human PC3 cells; type: cell-based
[8] = test system: ABHD6; assay: ABPP in Neuro2A proteome, ABHD6; type: binding, mouse
[9] = target: T4, hDAGL-β (Homo sapiens, UniProt Q8NCG7); assay: competitive ABPP with MB064 on membranes of hDAGL-β transfected HEK293T cells; type: binding; details: n=3
T4 sequence (Q8NCG7 1-672): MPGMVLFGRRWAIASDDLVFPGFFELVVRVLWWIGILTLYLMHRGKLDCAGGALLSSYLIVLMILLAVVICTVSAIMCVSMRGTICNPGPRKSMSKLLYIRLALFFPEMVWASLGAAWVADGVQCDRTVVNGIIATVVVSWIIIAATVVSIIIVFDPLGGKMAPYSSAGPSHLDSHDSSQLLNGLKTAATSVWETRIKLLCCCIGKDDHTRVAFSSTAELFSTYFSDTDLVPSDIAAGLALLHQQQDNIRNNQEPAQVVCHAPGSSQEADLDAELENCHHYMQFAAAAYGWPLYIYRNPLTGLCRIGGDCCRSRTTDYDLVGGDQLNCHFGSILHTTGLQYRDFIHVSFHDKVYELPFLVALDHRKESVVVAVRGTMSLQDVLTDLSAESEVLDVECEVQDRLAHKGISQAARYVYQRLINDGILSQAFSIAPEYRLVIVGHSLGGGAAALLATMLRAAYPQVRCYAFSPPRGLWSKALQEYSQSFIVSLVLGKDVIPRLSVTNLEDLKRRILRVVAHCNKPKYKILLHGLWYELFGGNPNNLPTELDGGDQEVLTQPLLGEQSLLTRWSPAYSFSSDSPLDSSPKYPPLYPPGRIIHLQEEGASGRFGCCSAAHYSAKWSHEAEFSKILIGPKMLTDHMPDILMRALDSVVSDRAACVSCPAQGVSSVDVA

[10] = test system: CA1 pyramidal neurons in hippocampal slices; assay: depolarization-induced suppression of inhibition; type: cell-based, mouse; details: 10 μM
[11] = target: T1, DAGL-α; assay: radiometric assay using 1-[14C]oleoyl-2-arachidonoyl-sn-glycerol as substrate; type: biochemical; details: 1-[14C]oleoyl-2-arachidonoyl-sn-glycerol 20 μm; n=2
[12] = target: T1, DAGL-α; assay: colorimetric assay using para-nitrophenylbutyrate as a surrogate substrate; type: biochemical
[13] = target: cannabinoid CB1 receptor (Homo sapiens, UniProt P21554); assay: cannabinoid CB1 receptor radioligand displacement assay; type: binding
[14] = test system: Neuro2A cells; assay: targeted lipidomics after in situ treatment of Neuro2A cells; type: cell-based, mouse; details: in situ 1h, 37 °C, n=4
[15] = target: T5, recombinant human ABHD6 (Homo sapiens, UniProt Q9BV23); assay: biochemical assay using recombinant human ABHD6
T5 sequence (Q9BV23 1-337): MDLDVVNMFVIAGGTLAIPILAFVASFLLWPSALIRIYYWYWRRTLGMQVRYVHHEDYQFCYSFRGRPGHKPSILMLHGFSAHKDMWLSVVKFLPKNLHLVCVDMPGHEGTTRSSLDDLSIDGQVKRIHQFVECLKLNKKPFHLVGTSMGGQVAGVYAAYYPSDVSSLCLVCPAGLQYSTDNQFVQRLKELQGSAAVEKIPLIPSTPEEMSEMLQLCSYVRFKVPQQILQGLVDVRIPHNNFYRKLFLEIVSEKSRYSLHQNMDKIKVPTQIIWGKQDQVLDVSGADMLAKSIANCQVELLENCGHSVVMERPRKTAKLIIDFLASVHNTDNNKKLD

[16] = target: T6, endogenous DAGL-β (Mus musculus, UniProt Q91WC9); assay: competitive ABPP with MB064 in Neuro2A proteome; type: binding; details: Neuro2A proteome in vitro, n=3
T6 sequence (Q91WC9 1-669): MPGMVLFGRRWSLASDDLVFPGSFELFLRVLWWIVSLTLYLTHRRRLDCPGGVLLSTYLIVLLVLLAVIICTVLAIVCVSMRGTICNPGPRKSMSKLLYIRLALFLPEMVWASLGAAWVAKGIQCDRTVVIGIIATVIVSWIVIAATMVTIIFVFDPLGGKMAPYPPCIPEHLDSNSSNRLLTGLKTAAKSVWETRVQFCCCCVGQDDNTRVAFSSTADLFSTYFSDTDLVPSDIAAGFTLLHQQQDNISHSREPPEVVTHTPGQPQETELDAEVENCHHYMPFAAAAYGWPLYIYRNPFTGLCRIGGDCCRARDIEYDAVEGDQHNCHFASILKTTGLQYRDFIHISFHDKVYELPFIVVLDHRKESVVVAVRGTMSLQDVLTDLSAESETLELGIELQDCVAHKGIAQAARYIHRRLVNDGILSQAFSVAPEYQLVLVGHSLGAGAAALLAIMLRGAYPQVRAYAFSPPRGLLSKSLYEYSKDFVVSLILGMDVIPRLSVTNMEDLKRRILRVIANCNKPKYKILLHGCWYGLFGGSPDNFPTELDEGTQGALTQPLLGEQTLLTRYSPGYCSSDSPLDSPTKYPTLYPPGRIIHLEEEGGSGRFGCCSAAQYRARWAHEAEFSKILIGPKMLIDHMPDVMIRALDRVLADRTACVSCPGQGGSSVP

[17] = target: T2, FAAH; assay: ABPP in Neuro2A proteome, FAAH; type: binding
[18] = test system: serine hydrolases; type: binding, mouse; details: 10 μM, 30 min
[19] = target: T4, hDAGL-β; assay: biochemical assay with para-nitrophenylbutyrate as a surrogate substrate; details: n=4
[20] = test system: serine hydrolases; type: binding, mouse
[21] = test system: endogenously expressed DAGL-β; assay: competitive ABPP with MB064 in mouse spleen membrane proteome; type: binding; details: 10 μM, MB064 1.0 μM

Chain of cannabinoid CB1 receptor (P21554 whole entry): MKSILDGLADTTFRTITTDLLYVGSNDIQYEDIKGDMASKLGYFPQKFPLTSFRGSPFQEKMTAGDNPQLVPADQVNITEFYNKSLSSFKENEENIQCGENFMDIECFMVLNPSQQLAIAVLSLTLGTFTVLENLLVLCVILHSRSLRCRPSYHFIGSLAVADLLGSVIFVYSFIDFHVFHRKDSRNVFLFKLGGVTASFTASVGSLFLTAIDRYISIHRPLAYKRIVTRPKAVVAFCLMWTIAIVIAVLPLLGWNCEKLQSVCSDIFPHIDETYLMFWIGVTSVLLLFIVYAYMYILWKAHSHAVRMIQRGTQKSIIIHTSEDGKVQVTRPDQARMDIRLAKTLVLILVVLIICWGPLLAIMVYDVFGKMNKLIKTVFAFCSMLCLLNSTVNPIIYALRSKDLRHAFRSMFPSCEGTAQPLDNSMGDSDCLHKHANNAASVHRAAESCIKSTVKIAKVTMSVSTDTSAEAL

Which “recovery of DAGL-α activity after size exclusion chromatography” value [1] does the source give for `O=C(N1CCCCC1Cc1ccccc1)n1cc(-c2ccc(-c3ccccc3)cc2)nn1` (centres unmarked) [KT-109, reference compound] here?
Its value is “No recovery”.

What about the arachidonic acid levels [2] of the same compound?
Its arachidonic acid levels is “reduction”.

What does the source list for `O=C(CCCCCc1ccccc1)c1nc2ncccc2o1` [LEI104]?
IC50 [3]: 501 nM; IC50 [4]: 15.8 nM

Which “recovery of DAGL-α activity after size exclusion chromatography” value [1] does the source give for `Cc1ccc(-c2cnc3nc(C(=O)CCCCCc4ccccc4)oc3c2)cc1` [LEI105] here?
The value was “reversibility”.

What about the “pKi on MAGL” value [5] of the same compound?
Its value is less than 5.

And the “reduction of DAGL-α labeling” value [6]?
Its value is “over 70%”.

What about the 2-AG levels [7] of the same compound?
The 2-AG levels was “reduced”.

What about the arachidonic acid levels [7] of the same compound?
Its arachidonic acid levels is “reduced”.

What about the “substrate levels of DAGL (DAG species)” value [7] of the same compound?
Its value is “no change”.

And the “fold increase compared to LEI104” value ([3]; natural substrate assay)?
The value was 40 fold.

And the “inhibition of ABHD6” value [8]?
Its value is “no inhibition”.

And the “pIC50 of hDAGL-β labeling by MB064” value [9]?
Its value is 7.4 ± 0.07.

What about the “DSI in hippocampal slices (in words)” value [10] of the same compound?
The value was “reduced”.

What about the “amplitude of stimulus-evoked inhibitory post-synaptic currents (IPSC)” value ([10]; pre-incubation and continuous application) of the same compound?
Its value is 271 ± 22 pA.

And the “DSI, reduction in IPSC amplitude averaged over the first 15 sec after induction” value ([10]; n=15, p<0.05 vs control)?
The value was 18 ± 7%.

What about the “pIC50, radiometric assay” value [11] of the same compound?
Its value is 6.6.

What about the “fold more potent than LEI104” value ([12]; para-nitrophenylbutyrate assay, vs LEI104) of the same compound?
Its value is roughly 10 fold.

And the “pIC50 on human DAGL-α” value ([12]; para-nitrophenylbutyrate surrogate substrate, n=4)?
The value was 8.5 ± 0.06.

And the “displacement of 3H-CP55940 from the CB1 receptor” value ([13]; 10 μM)?
Its value is “did not displace”.

And the “pKi on cannabinoid CB1 receptor” value ([13]; radioligand displacement)?
Its value is less than 5.

What about the “block of FAAH labeling” value ([4]; up to a concentration of 10 μM, TAMRA-FP, n=3) of the same compound?
Its value is “did not block FAAH labeling”.

And the “cellular 2-AG levels” value [14]?
The value was “concentration-dependent reduction; also recorded: dose dependently decreased”.

What about the “cellular anandamide (AEA) levels” value [14] of the same compound?
The value was “unaffected; also recorded: constant”.

And the “pKi on ABHD6” value [15]?
Its value is less than 5.

What about the “pIC50 of DAGL-β labeling” value [16] of the same compound?
Its value is 7.3 ± 0.07.

And the “inhibition of FAAH” value [17]?
The value was “no inhibition”.

What about the “reduction of labeling of the detected serine hydrolases, except DAGL-α” value [18] of the same compound?
Its value is no more than 20%.

What about the “pIC50 on human DAGL-β” value [19] of the same compound?
Its value is 8.1 ± 0.07.

And the “inhibition of labeling of other bands (TAMRA-FP and MB064)” value ([20]; 10 μM)?
The value was “did not inhibit labeling of any other band”.

What about the “inhibition of endogenous DAGL-β labeling/activity in spleen” value [21] of the same compound?
The value was “could be inhibited; also recorded: can block labeling”.

With `CCCCCCCCCCC[C@@H](C[C@@H]1OC(=O)[C@H]1CCCCCC)OC(=O)[C@@H](NC=O)[C@@H](C)CC` [OMDM-188, reference compound] as the compound, how does the “number of serine hydrolases whose labeling was blocked” value ([20]; 1 μM, including ABHD6 and ABHD12) read?
Its value is “at least 4”.
